Measured values: ChEMBL document CHEMBL1201862, “PubChem BioAssay data set” (2004)
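Protocol summary: plate cells (96-well), add compound at 5 concentrations, incubate 48 h, interpolate endpoints linearly. Abbreviation: GI50, concentration required for 50% inhibition of growth.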 The source made the active and inactive calls. No stated cut-off is given here; in the data, active = GI50 up to about 1.1 µM and inactive = higher.

Key:
Test in all cases: NCI tumour cell line growth inhibition, 48 h
[1] = system: RXF 393
[2] = system: NCI-H460
[3] = system: SK-MEL-2
[4] = system: SK-OV-3
[5] = system: SW-620
[6] = system: SF-539
[7] = system: SR
[8] = system: HCT-116
[9] = system: UO-31
[10] = system: Malme-3M
[11] = system: KM12
[12] = system: NCI-H23
[13] = system: IGROV-1
[14] = system: COLO 205
[15] = system: SN12C
[16] = system: UACC-257
[17] = system: SNB-19
[18] = system: SF-268
[19] = system: RPMI-8226

| Structure (SMILES) | GI50 [1] | GI50 [2] | GI50 [3] | GI50 [4] | GI50 [5] | GI50 [6] | GI50 [7] | GI50 [8] | GI50 [9] | GI50 [10] | GI50 [11] | GI50 [12] | GI50 [13] | GI50 [14] | GI50 [15] | GI50 [16] | GI50 [17] | GI50 [18] | GI50 [19] |
| --- | --- | --- | --- | --- | --- | --- | --- | --- | --- | --- | --- | --- | --- | --- | --- | --- | --- | --- | --- |
| Cc1coc2c1C(=O)C(=O)c1ccccc1-2 | 1.74 µM (inactive) | 1.77 µM (inactive) | 1.87 µM (inactive) | 1.76 µM (inactive) | 1.41 µM (inactive) | 1.52 µM (inactive) | 1.38 µM (inactive) | 0.301 µM (active) | 3.1 µM (inactive) | 1.58 µM (inactive) | 1.81 µM (inactive) | 1.92 µM (inactive) | 1.83 µM (inactive) | 1.5 µM (inactive) | 0.838 µM (active) | 0.21 µM (active) |  |  |  |
| O=C(NC(Cc1ccccc1)C(=O)CCl)OCc1ccccc1 (stereo not given) |  | 5.74 µM (inactive) | 10.3 µM (inactive) | 14.4 µM (inactive) | 4.26 µM (inactive) | 4.76 µM (inactive) | 6.24 µM (inactive) | 13.6 µM (inactive) | 12.9 µM (inactive) | 11.4 µM (inactive) | 10 µM (inactive) | 9.2 µM (inactive) | 13.2 µM (inactive) | 7.16 µM (inactive) | 4.91 µM (inactive) | 13 µM (inactive) | 12.3 µM (inactive) | 5.05 µM (inactive) | 4.06 µM (inactive) |
| COc1cccc(C2SCc3nc4ccccc4n32)c1 (stereo not given) | 53.6 µM (inactive) | > 100 µM (inactive) | 56.2 µM (inactive) | 65.3 µM (inactive) | 46.6 µM (inactive) | > 100 µM (inactive) |  | 39.7 µM (inactive) | 22.1 µM (inactive) | 54.6 µM (inactive) | 56.4 µM (inactive) | 35 µM (inactive) | 45.5 µM (inactive) | > 100 µM (inactive) | 99.1 µM (inactive) | 44.3 µM (inactive) | > 100 µM (inactive) | 73.1 µM (inactive) |  |
| C[C@@H]1OC(=O)C[C@H]2CC(=O)N(CCC3CN(S(=O)(=O)C(F)(F)F)c4ccccc43)C[C@@H]21 (stereo not given in full) | > 100 µM (inactive) | > 100 µM (inactive) | > 100 µM (inactive) | > 100 µM (inactive) | > 100 µM (inactive) |  | > 100 µM (inactive) | > 100 µM (inactive) | > 100 µM (inactive) | 82.4 µM (inactive) | > 100 µM (inactive) | > 100 µM (inactive) | 69.7 µM (inactive) | > 100 µM (inactive) |  | > 100 µM (inactive) | > 100 µM (inactive) |  | > 100 µM (inactive) |
| Nc1n[nH]c2nc3ccc(C(F)(F)F)cc3nc12 | 16.4 µM (inactive) | 20.5 µM (inactive) | 23.3 µM (inactive) | 20.5 µM (inactive) | 19.3 µM (inactive) |  | 49.4 µM (inactive) | 24.7 µM (inactive) | 17.6 µM (inactive) | 71.6 µM (inactive) | 57.1 µM (inactive) | 22.2 µM (inactive) | 21.9 µM (inactive) | 16 µM (inactive) | 26.2 µM (inactive) | 21.8 µM (inactive) | 32.2 µM (inactive) | 33.7 µM (inactive) | 62.2 µM (inactive) |
| CCOC(=O)C1=C(Nc2ccc(Cl)c(Cl)c2)OC/C1=N\NC(=O)Cc1ccccc1 | > 100 µM (inactive) | > 100 µM (inactive) | > 100 µM (inactive) | > 100 µM (inactive) | > 100 µM (inactive) | > 100 µM (inactive) |  | 99.8 µM (inactive) | 56.2 µM (inactive) | > 100 µM (inactive) | > 100 µM (inactive) | > 100 µM (inactive) | > 100 µM (inactive) | > 100 µM (inactive) | > 100 µM (inactive) | 63.7 µM (inactive) | > 100 µM (inactive) | > 100 µM (inactive) | 68.7 µM (inactive) |
| CCN(CC)c1ccc2c(c1)OC(=O)C(c1nnc(-c3ccc([N+](=O)[O-])cc3)o1)C2 (stereo not given) | > 100 µM (inactive) | > 100 µM (inactive) | > 100 µM (inactive) | > 100 µM (inactive) | > 100 µM (inactive) |  |  | > 100 µM (inactive) | > 100 µM (inactive) | > 100 µM (inactive) | > 100 µM (inactive) | > 100 µM (inactive) | > 100 µM (inactive) | > 100 µM (inactive) |  | > 100 µM (inactive) | > 100 µM (inactive) | 90.4 µM (inactive) | > 100 µM (inactive) |
| CC1=CC2C(=O)N(c3ccccc3)C(=O)C2CC1n1[nH]c(=O)n(Cc2ccccc2)c1=O (stereo not given) | > 100 µM (inactive) | > 100 µM (inactive) | > 100 µM (inactive) | > 100 µM (inactive) | > 100 µM (inactive) | > 100 µM (inactive) | > 100 µM (inactive) | > 100 µM (inactive) | > 100 µM (inactive) | > 100 µM (inactive) | > 100 µM (inactive) | > 100 µM (inactive) | > 100 µM (inactive) | > 100 µM (inactive) | > 100 µM (inactive) | > 100 µM (inactive) | > 100 µM (inactive) | > 100 µM (inactive) |  |
| CN1CCCC2(CCCc3ccccc32)C1 (stereo not given) |  | > 100 µM (inactive) | > 100 µM (inactive) | > 100 µM (inactive) | > 100 µM (inactive) | > 100 µM (inactive) | > 100 µM (inactive) | > 100 µM (inactive) | 80.2 µM (inactive) | > 100 µM (inactive) | > 100 µM (inactive) | > 100 µM (inactive) | > 100 µM (inactive) | > 100 µM (inactive) | > 100 µM (inactive) | > 100 µM (inactive) |  | > 100 µM (inactive) | > 100 µM (inactive) |
| CC(=O)N(CCN)CCN | > 10 µM (inactive) | > 10 µM (inactive) | > 100 µM (inactive) | > 100 µM (inactive) | > 10 µM (inactive) |  | > 10 µM (inactive) | > 10 µM (inactive) | > 10 µM (inactive) |  | > 10 µM (inactive) | > 10 µM (inactive) |  | > 10 µM (inactive) | > 10 µM (inactive) | > 10 µM (inactive) | > 10 µM (inactive) | > 100 µM (inactive) | > 10 µM (inactive) |
| COc1ccc(C2C(Cl)C(=O)N2NC(=O)Cc2ccccc2)cc1OC (stereo not given) | > 100 µM (inactive) | > 100 µM (inactive) | > 100 µM (inactive) | > 100 µM (inactive) | > 100 µM (inactive) |  | > 100 µM (inactive) | > 100 µM (inactive) | > 100 µM (inactive) | > 100 µM (inactive) | > 100 µM (inactive) | > 100 µM (inactive) | > 100 µM (inactive) | > 100 µM (inactive) | > 100 µM (inactive) | > 100 µM (inactive) | > 100 µM (inactive) | > 100 µM (inactive) | > 100 µM (inactive) |
| Cc1ccccc1C(=O)c1ccccc1O | > 100 µM (inactive) | > 100 µM (inactive) | > 100 µM (inactive) | > 100 µM (inactive) | > 100 µM (inactive) | > 100 µM (inactive) |  | > 100 µM (inactive) | 24.6 µM (inactive) | > 100 µM (inactive) | > 100 µM (inactive) | > 100 µM (inactive) | > 100 µM (inactive) | > 100 µM (inactive) | > 100 µM (inactive) | > 100 µM (inactive) | > 100 µM (inactive) | > 100 µM (inactive) |  |
| COCN1C(=O)[C@@H]2CCCN2C(=O)c2ccc(N)cc21 | > 100 µM (inactive) | > 100 µM (inactive) | > 100 µM (inactive) | > 100 µM (inactive) | > 100 µM (inactive) | > 100 µM (inactive) | > 100 µM (inactive) | > 100 µM (inactive) | > 100 µM (inactive) |  | > 100 µM (inactive) | > 100 µM (inactive) | > 100 µM (inactive) | > 100 µM (inactive) | > 100 µM (inactive) | > 100 µM (inactive) | > 100 µM (inactive) | > 100 µM (inactive) | > 100 µM (inactive) |
| CCC(C)n1c(C)nc2c1C(=O)c1ccccc1C2=O (stereo not given) | 26.7 µM (inactive) | 19.3 µM (inactive) | > 100 µM (inactive) | > 100 µM (inactive) | 64.7 µM (inactive) | 32.7 µM (inactive) | 47.5 µM (inactive) | 31.6 µM (inactive) | 37.8 µM (inactive) | 32.2 µM (inactive) | > 100 µM (inactive) | 33.2 µM (inactive) | 45.1 µM (inactive) | 43.5 µM (inactive) | 57.8 µM (inactive) | 27.9 µM (inactive) | 96.6 µM (inactive) | 30.8 µM (inactive) |  |
| CCOc1cc(/C=C/C=C/c2ccc(N(C)C)cc2)[s+]c2ccccc12 | 24.2 µM (inactive) | 18.6 µM (inactive) | 20.4 µM (inactive) | 34 µM (inactive) | 30.7 µM (inactive) | 14.1 µM (inactive) |  | 21.7 µM (inactive) |  | 28.9 µM (inactive) | 17.1 µM (inactive) | 34.6 µM (inactive) | 21.6 µM (inactive) | 34.9 µM (inactive) | 35.8 µM (inactive) | 23.3 µM (inactive) | 31.3 µM (inactive) | 18.4 µM (inactive) | 3.2 µM (inactive) |
| COc1ccc(NN=C2C(=O)CCC2=O)cc1 | > 100 µM (inactive) | > 100 µM (inactive) | > 100 µM (inactive) | > 100 µM (inactive) | > 100 µM (inactive) | > 100 µM (inactive) |  | > 100 µM (inactive) | 98.9 µM (inactive) | > 100 µM (inactive) | > 100 µM (inactive) | 69 µM (inactive) | > 100 µM (inactive) | 47.2 µM (inactive) | > 100 µM (inactive) | 52.4 µM (inactive) | > 100 µM (inactive) | > 100 µM (inactive) |  |
